# Test results from patent US8518889B2, “Method of treating cancer with antibodies against long-form leukotriene B4 receptor BLT2” (Korea University Research & Business Foundation, priority 2007, dated 2013).
# Columns and labels:
# [1] = system: VEGF-induced angiogenesis; experiment: VEGF-induced angiogenesis (Matrigel plug, HUVEC tube formation and transmigration); design: species or system FVB mice; conditions: mouse, in vivo
# Experimental: FVB wild-type mice or BLT2 TG mice (female, 8-10 wk old) were subcutaneously injected with 400 μl of growth factor-reduced Matrigel from BD Biosciences containing heparin (20 units) and the agents to be tested. After 7 days, the mice were killed, and the solidified Matrigel was excised, fixed in 10% formalin, embedded in paraffin, cut into 5-μm sections and stained with anti-vWF antibody according to the manufacturer's instructions in the Blood Vessel Staining Kit (Chemicon). Each stained Matrigel section was photographed using a BX51 microscope equipped with a DP71 digital camera (Olympus), and the area of vWF-positive blood vessels was calculated using Image J software.
# Growth factor-reduced Matrigel (300 μl; BD Biosciences, San Diego, Calif.) was added to each 24-well plate and polymerized for 12 h at 37° C. […] After 12 hr, five randomly selected areas were photographed using a CKX41 microscope equipped with a DP71 digital camera, and tube lengths were measured and quantified using Image J software, the image processing program developed at the U.S. National Institutes of Health (NIH). […]
# The cells were then allowed to migrate to the lower side of the chambers, which contained LTB4, 12(S)-HETE or VEGF. […] Cell migration was quantified by counting the cells on the lower side of the filter after they were photographed using a CKX41 microscope equipped with a DP71 digital camera. […]
# LNCaP cells = experiment: cell cycle analysis (PI, flow cytometry); assay type: cell-based, human; conditions: 5 μM, 48 hr
# Experimental: After LNCaP cells and PWR-1E cells were treated with 5 μM LY255283 for 48 hr, the cells were fixed with 70% ethanol and stained with Pl. Cell cycle was analyzed using flow cytometry. The cells grown in 6-well cluster dishes were stimulated with 5 μM LY255283 for 48 h in serum free RPMI 1640. The cells which were collected by brief trypsinization were fixed for 12 hr with 70% ethanol at 4° C. The cells were resuspended in PBS containing RNase A (100 μg/ml) and incubated for 30 min at 37° C. The cells were stained with propidium iodide (50 μg/ml) (Sigma). Acquisition and analysis was performed by FACS using Cell Quest Alias software (BD Bioscience).
# [2] = system: 253J-BV bladder cancer cell; experiment: mitochondrial membrane potential (JC-1, flow cytometry); assay type: cell-based, human; conditions: 48 hr
# Experimental: Mitochondrial damage is important to the apoptosis affected by the caspase-9 pathway. To evaluate the effect of LY255283 on the mitochondria membrane potential (MMP), cell were pretreated with the fluorescent mitochondria specific cationic dye, JC-1, and changes in membrane potential were measured by flow cytometry. Cells grown in 6 well-plates for 24 hr washed PBS and incubated in RPMI 1640 with 0.5% FBS containing different concentrations of LY255283 and U75302 for 48 hr. After cells were treated with 5 μg/ml of JC-1 for 30 min. Then removal of JC-1, washed with PBS, harvested by trypsinization, and resuspended in PBS. Sample was measured at 530 nm (FL-1 green) and 590 nm (FL-2 red) using a flow cytometry. […] And because of the loss of mitochondrial membrane potential in a LY255283 treated cells, it was speculated that caspase may play an essential role in the process of apoptosis.
# MDA-MB-468 cells = experiment: DAPI staining, apoptotic cells; assay type: cell-based, human; conditions: 2, 5, 10 μM, 48 h
# Experimental: Cells were grown on sterile coverslips at a density of 7×10^5 cells/plate in 35-mm plate. After 24 h, cells incubated in media containing serum-free for 3 h. Then, cells were treated with U75302 (0.5, 1 μM), LY255283 (5, 10 μM) and incubated at 37° C. for 48 h. Then, cells were fixed with 70% cold-ethanol for 30 min at room temperature, and then washed once with PBS. DAPI (50 ng/ml) was added to the fixed cells, incubated for 20 min at room temperature, and washed with PBS. Cells were mounted and examined by fluorescence microscopy. Apoptotic cells were identified by the condensation and fragmentation of their nuclei. The percentage of apoptotic cells was calculated as the ratio of apoptotic cells to total cells counted. A minimum of 500 cells were counted for each treatment.
smiles,measurement,setting,value
"CCc1cc(C(C)=O)c(O)cc1OCCCCCC(C)(C)c1nnn[nH]1 [LY255283, 1-[5-ethyl-2-hydroxy-4-[[6-methyl-6-(1H-tetrazol-5-yl)heptyl]oxy]phenyl]-ethanone]",VEGF-induced angiogenesis,[1],suppressed VEGF-induced angiogenesis
same,sub-G1 population,LNCaP cells,increased population of cells with sub-GI DNA content
same,mitochondria potential,[2]; 10 μM,drop in mitochondria potential
same,increase of green fluorescence (FL-1) compare with control cells,"[2]; JC-1, 10 μM",about 2.5 fold
same,apoptosis (DAPI staining),MDA-MB-468 cells,induces apoptosis via a dose-dependent manner
